The values below come from patent publication US5763404A, “Methods for using LHRH antagonists with low histamine release” (priority 1995, dated 1998).

Starred links: 1 amine or outer side, 2 acyl side, 3 side chain; linkers in the order of their positions; H or OH if unused. Non-standard residues stand in square brackets, D forms with d. Residues, ends and D or L forms follow the SMILES beside them. *: point of attachment. dAla(cis-4-NHCOPyz-cHex) = N[C@H](C[C@H]1CC[C@@H](NC(=O)c2cnccn2)CC1)C(=O)O; dPhe(3,4-Cl2) = N[C@H](Cc1ccc(Cl)c(Cl)c1)C(=O)O; dPhe(4-Cl) = N[C@H](Cc1ccc(Cl)cc1)C(=O)O; Pyrimidin2yl(4,6-Me2) = Cc1cc(C)nc(*)n1; X10 = O=C([C@@H](Cc1cnccn1)N[*:1])[*:2]; d2Nal = N[C@H](Cc1ccc2ccccc2c1)C(=O)O; dLys(iPr) = CC(C)NCCCC[C@@H](N)C(=O)O; Lys(iPr) = CC(C)NCCCC[C@H](N)C(=O)O; Orn(iPr) = CC(C)NCCC[C@H](N)C(=O)O; aIle = CC[C@@H](C)[C@H](N)C(=O)O; 3Pal = N[C@@H](Cc1cccnc1)C(=O)O; d3Pal = N[C@H](Cc1cccnc1)C(=O)O; Nicotinoyl = O=C(c1cccnc1)*; Picolinoyl = O=C(c1ccccn1)*; Nle = CCCC[C@H](N)C(=O)O; Orn = NCCC[C@H](N)C(=O)O; Abu = CC[C@H](N)C(=O)O; X12 = O=C(c1ccncn1)*; Bz = O=C(c1ccccc1)*

The subject of the first series is anaesthesized rats. Briefly: wheal test, intradermal injection. On the set-up: Wheal (wheal response): unit not given here. The settings on record: 10 ug peptide intradermally. It is filed as in vivo, rat. How it is done:
The antiovulatory activity, AOA, in rats was determined as described by Humphries et al. (12). Antiovulation assays were performed by counting, on estrus, the number of ova shed by 4-day cycling rats after a single sc injection of the LH-RH analogue in corn oil was administered between 12 and 12:30 p.m. on […]. The control rats received 0.3 mL of the vehicle. The wheal test was performed by intradermally injecting 10 ug of peptide in 100 ul of saline into anaesthesized rats, measuring the ideally circular wheal response and calculating the area. The in vitro histamine release test was done as described by Karten et al. (4). A suspension of rat mast cells was added to increasing concentrations of peptide and the mixture was incubated for a few minutes followed by centrifugation to collect the histamine in the supernatant. A PIPES (piperazine-N,N'-bis[2-ethanesulfonic acid]) medium buffered at pH 7.4 containing NaCl 119 mM, KCl 5 mM, PIPES 25 mM, NaOH 40 mM, glucose 5.6 mM, CaCl2 1 mM, and 0.1% bovine serum albumin was used. This was designated as PIPES AC. Peptides were dissolved in double distilled H2 O at a concentration of 2 mg/ml and stored at -20° C. They were thawed just prior to testing, diluted in PIPES AC and prewarmed for five minutes at 37° C. Peptides studied were stable to heating at 56° C. for two hours, and to freezing and thawing.
As for `CC(=O)N[C@H](Cc1ccc2ccccc2c1)C(=O)N[C@H](Cc1ccc(Cl)cc1)C(=O)N[C@H](Cc1cccnc1)C(=O)N[C@@H](CO)C(=O)N[C@@H](CCCCNC(=O)c1ccccn1)C(=O)N[C@H](C[C@H]1CC[C@@H](NC(=O)c2cnccn2)CC1)C(=O)N[C@@H](CC(C)C)C(=O)N[C@@H](CCCNC(C)C)C(=O)N1CCC[C@H]1C(=O)N[C@H](C)C(N)=O` [IBR 26181] (Ac-[d2Nal][dPhe(4-Cl)][d3Pal]SK(Picolinoyl)[dAla(cis-4-NHCOPyz-cHex)]L[Orn(iPr)]P[dA]-NH2), the “Wheal Area” value was determined as 101.6 ± 2.2 mm^2 /10 μg. On the same count and under the same terms, under `CC(=O)N[C@H](Cc1ccc2ccccc2c1)C(=O)N[C@H](Cc1ccc(Cl)cc1)C(=O)N[C@H](Cc1cccnc1)C(=O)N[C@@H](CO)C(=O)N[C@@H](CCCCNC(=O)c1ccccn1)C(=O)N[C@H](C[C@H]1CC[C@@H](NC(=O)c2cnccn2)CC1)C(=O)N[C@@H](Cc1ccccc1)C(=O)N[C@@H](CCCCNC(C)C)C(=O)N1CCC[C@H]1C(=O)N[C@H](C)C(N)=O` [compound 26366] (Ac-[d2Nal][dPhe(4-Cl)][d3Pal]SK(Picolinoyl)[dAla(cis-4-NHCOPyz-cHex)]F[Lys(iPr)]P[dA]-NH2) stands 116.2 ± 3.2 mm^2 /10 μg; under `CC[C@H](NC(=O)[C@@H](CCCCNC(=O)c1ccccn1)NC(=O)[C@H](CCCCNC(=O)c1ccccn1)NC(=O)[C@H](CO)NC(=O)[C@@H](Cc1cccnc1)NC(=O)[C@@H](Cc1ccc(Cl)cc1)NC(=O)[C@@H](Cc1ccc2ccccc2c1)NC(C)=O)C(=O)N[C@@H](CCCNC(=N)N)C(=O)N1CCC[C@H]1C(=O)N[C@H](C)C(N)=O` [compound 26346] (Ac-[d2Nal][dPhe(4-Cl)][d3Pal]SK(Picolinoyl)[dK](Picolinoyl)[Abu]RP[dA]-NH2), 113.2 ± 5.4 mm^2 /10 μg. Still for that read-out and setting: under `CCCC[C@H](NC(=O)[C@@H](CCCCNC(=O)c1ccccn1)NC(=O)[C@H](CCCCNC(=O)c1ccccn1)NC(=O)[C@H](CO)NC(=O)[C@@H](Cc1cccnc1)NC(=O)[C@@H](Cc1ccc(Cl)cc1)NC(=O)[C@@H](Cc1ccc2ccccc2c1)NC(C)=O)C(=O)N[C@@H](CCCCNC(C)C)C(=O)N1CCC[C@H]1C(=O)N[C@H](C)C(N)=O` [compound 25988] (Ac-[d2Nal][dPhe(4-Cl)][d3Pal]SK(Picolinoyl)[dK](Picolinoyl)[Nle][Lys(iPr)]P[dA]-NH2) stands 107.0 ± 6.0 mm^2 /10 μg; under `CC(=O)N[C@H](Cc1ccc2ccccc2c1)C(=O)N[C@H](Cc1ccc(Cl)cc1)C(=O)N[C@H](Cc1cccnc1)C(=O)N[C@@H](CO)C(=O)N[C@@H](CCCCNC(=O)c1ccncn1)C(=O)N[C@H](CCCCNC(=O)c1ccncn1)C(=O)N[C@@H](CC(C)C)C(=O)N[C@@H](CCCCNC(C)C)C(=O)N1CCC[C@H]1C(=O)N[C@H](C)C(N)=O` [compound 26322] (Ac-[d2Nal][dPhe(4-Cl)][d3Pal]SK(X12)[dK](X12)L[Lys(iPr)]P[dA]-NH2), 130.2 ± 2.5 mm^2 /10 μg. Same read-out and setting: for `CC(=O)N[C@H](Cc1ccc2ccccc2c1)C(=O)N[C@H](Cc1ccc(Cl)cc1)C(=O)N[C@H](Cc1cnccn1)C(=O)N[C@@H](CO)C(=O)N[C@@H](CCCCNC(=O)c1ccccn1)C(=O)N[C@H](CCCCNC(=O)c1ccccn1)C(=O)N[C@@H](CC(C)C)C(=O)N[C@@H](CCCNC(C)C)C(=O)N1CCC[C@H]1C(=O)N[C@H](C)C(N)=O` [compound 26119] (Ac-[d2Nal][dPhe(4-Cl)][X10]SK(Picolinoyl)[dK](Picolinoyl)L[Orn(iPr)]P[dA]-NH2) the value was 103.9 ± 3.4 mm^2 /10 μg.

Still in this series, the particulars now being: Table I; 10 ug peptide intradermally.
Take `CC(=O)N[C@H](Cc1ccc2ccccc2c1)C(=O)N[C@H](Cc1ccc(Cl)cc1)C(=O)N[C@H](Cc1cccnc1)C(=O)N[C@@H](CO)C(=O)N[C@@H](CCCCNC(C)C)C(=O)N[C@H](CCCCNC(=O)c1cccnc1)C(=O)N[C@@H](CC(C)C)C(=O)N[C@@H](CCCCNC(=O)c1cccnc1)C(=O)N1CCC[C@H]1C(=O)N[C@H](C)C(N)=O` [compound 24746] (Ac-[d2Nal][dPhe(4-Cl)][d3Pal]S[Lys(iPr)][dK](Nicotinoyl)LK(Nicotinoyl)P[dA]-NH2): the Wheal is recorded as 132.8 ± 5.9 mm^2 /10.

Turning to `CC(=O)N[C@H](Cc1ccc2ccccc2c1)C(=O)N[C@H](Cc1ccc(Cl)cc1)C(=O)N[C@H](Cc1cccnc1)C(=O)N[C@@H](CO)C(=O)N[C@@H](Cc1cccnc1)C(=O)N[C@H](CCCCNC(=O)c1cccnc1)C(=O)N[C@@H](CC(C)C)C(=O)N[C@@H](CCCNC(=N)N)C(=O)N1CCC[C@H]1C(=O)N[C@H](C)C(N)=O` [compound 24593] (Ac-[d2Nal][dPhe(4-Cl)][d3Pal]S[3Pal][dK](Nicotinoyl)LRP[dA]-NH2), the Wheal is on record as 146.4 ± 3.6 mm^2 /10. `CC(=O)N[C@H](Cc1ccc2ccccc2c1)C(=O)N[C@H](Cc1ccc(Cl)cc1)C(=O)N[C@H](Cc1cccnc1)C(=O)N[C@@H](CO)C(=O)N[C@@H](Cc1ccc(O)cc1)C(=O)N[C@H](CCCCNC(=O)c1cccnc1)C(=O)N[C@@H](CC(C)C)C(=O)N[C@@H](CCCCNC(C)C)C(=O)N1CCC[C@H]1C(=O)N[C@H](C)C(N)=O` [compound 24315] (Ac-[d2Nal][dPhe(4-Cl)][d3Pal]SY[dK](Nicotinoyl)L[Lys(iPr)]P[dA]-NH2) showed a Wheal of 79.0 ± 9.2 mm^2 /10. In the case of `CC(=O)N[C@H](Cc1ccc2ccccc2c1)C(=O)N[C@H](Cc1ccc(Cl)cc1)C(=O)N[C@H](Cc1cccnc1)C(=O)N[C@@H](CO)C(=O)N[C@@H](CCCNC(=N)N)C(=O)N[C@H](CCCCNC(=O)c1ccccc1)C(=O)N[C@@H](CC(C)C)C(=O)N[C@@H](CCCCNC(C)C)C(=O)N1CCC[C@H]1C(=O)N[C@H](C)C(N)=O` [compound 25385] (Ac-[d2Nal][dPhe(4-Cl)][d3Pal]SR[dK](Bz)L[Lys(iPr)]P[dA]-NH2), the Wheal is given as 169.0 mm^2 /10. In the case of `CC(=O)N[C@H](Cc1ccc2ccccc2c1)C(=O)N[C@H](Cc1ccc(Cl)cc1)C(=O)N[C@H](Cc1cccnc1)C(=O)N[C@@H](CO)C(=O)N[C@@H](CCCNc1nc(C)cc(C)n1)C(=O)N[C@H](CCCCNC(=O)c1cccnc1)C(=O)N[C@@H](CC(C)C)C(=O)N[C@@H](CCCCNC(C)C)C(=O)N1CCC[C@H]1C(=O)N[C@H](C)C(N)=O` [compound 25506] (Ac-[d2Nal][dPhe(4-Cl)][d3Pal]S[Orn](Pyrimidin2yl(4,6-Me2))[dK](Nicotinoyl)L[Lys(iPr)]P[dA]-NH2), the Wheal was found to be 110 ± 3 mm^2 /10.

Take `CC(=O)N[C@H](Cc1ccc2ccccc2c1)C(=O)N[C@H](Cc1ccc(Cl)cc1)C(=O)N[C@H](Cc1cccnc1)C(=O)N[C@@H](CO)C(=O)N[C@@H](CCCCNC(=O)c1cccnc1)C(=O)N[C@H](CCCCNC(=O)c1ccccc1)C(=O)N[C@@H](CC(C)C)C(=O)N[C@@H](CCCCNC(C)C)C(=O)N1CCC[C@H]1C(=O)N[C@H](C)C(N)=O` [compound 25332] (Ac-[d2Nal][dPhe(4-Cl)][d3Pal]SK(Nicotinoyl)[dK](Bz)L[Lys(iPr)]P[dA]-NH2): the Wheal is given as 119.6 mm^2 /10. The same measure, in the same setting: under `CC(=O)N[C@H](Cc1ccc2ccccc2c1)C(=O)N[C@H](Cc1ccc(Cl)cc1)C(=O)N[C@H](Cc1cccnc1)C(=O)N[C@@H](CO)C(=O)N[C@@H](CCCCNC(=O)c1cccnc1)C(=O)N[C@H](CCCCNC(=O)c1ccccn1)C(=O)N[C@@H](CC(C)C)C(=O)N[C@@H](CCCCNC(C)C)C(=O)N1CCC[C@H]1C(=O)N[C@H](C)C(N)=O` [compound 25589] (Ac-[d2Nal][dPhe(4-Cl)][d3Pal]SK(Nicotinoyl)[dK](Picolinoyl)L[Lys(iPr)]P[dA]-NH2) stands 120 ± 7 mm^2 /10; under `CC(=O)N[C@H](Cc1ccc2ccccc2c1)C(=O)N[C@H](Cc1ccc(Cl)cc1)C(=O)N[C@H](Cc1cccnc1)C(=O)N[C@@H](CO)C(=O)N[C@@H](CCCCNC(=O)c1cccnc1)C(=O)N[C@H](CCCCNC(C)C)C(=O)N[C@@H](CC(C)C)C(=O)N[C@@H](CCCNC(=N)N)C(=O)N1CCC[C@H]1C(=O)N[C@H](C)C(N)=O` [compound 24754] (Ac-[d2Nal][dPhe(4-Cl)][d3Pal]SK(Nicotinoyl)[dLys(iPr)]LRP[dA]-NH2), 196.9 ± 4.1 mm^2 /10; under `CC(=O)N[C@H](Cc1ccc(Cl)c(Cl)c1)C(=O)N[C@H](Cc1ccc(Cl)cc1)C(=O)N[C@H](Cc1cccnc1)C(=O)N[C@@H](CO)C(=O)N[C@@H](Cc1ccc(O)cc1)C(=O)N[C@H](CCCCNC(=O)c1cccnc1)C(=O)N[C@@H](CC(C)C)C(=O)N[C@@H](CCCCNC(C)C)C(=O)N1CCC[C@H]1C(=O)N[C@H](C)C(N)=O` [compound 25338] (Ac-[dPhe(3,4-Cl2)][dPhe(4-Cl)][d3Pal]SY[dK](Nicotinoyl)L[Lys(iPr)]P[dA]-NH2), 103.9 mm^2 /10.

Still in this series, the particulars now being: Table XIV and text, unit not given.
As to `CC[C@H](NC(=O)[C@@H](CCCCNC(=O)c1ccccn1)NC(=O)[C@H](CCCCNC(=O)c1ccccn1)NC(=O)[C@H](CO)NC(=O)[C@@H](Cc1cccnc1)NC(=O)[C@@H](Cc1ccc(Cl)cc1)NC(=O)[C@@H](Cc1ccc2ccccc2c1)NC(C)=O)C(=O)N[C@@H](CCCNC(=N)N)C(=O)N1CCC[C@H]1C(=O)N[C@H](C)C(N)=O` [compound 26346] (Ac-[d2Nal][dPhe(4-Cl)][d3Pal]SK(Picolinoyl)[dK](Picolinoyl)[Abu]RP[dA]-NH2), the “Wheal (wheal response)” value turned out to be 113.2 ± 5.4. On the same count and under the same terms, for `CC[C@@H](C)[C@H](NC(=O)[C@@H](CCCCNC(=O)c1ccccn1)NC(=O)[C@H](CCCCNC(=O)c1ccccn1)NC(=O)[C@H](CO)NC(=O)[C@@H](Cc1cccnc1)NC(=O)[C@@H](Cc1ccc(Cl)cc1)NC(=O)[C@@H](Cc1ccc2ccccc2c1)NC(C)=O)C(=O)N[C@@H](CCCCNC(C)C)C(=O)N1CCC[C@H]1C(=O)N[C@H](C)C(N)=O` [IBR 25936] (Ac-[d2Nal][dPhe(4-Cl)][d3Pal]SK(Picolinoyl)[dK](Picolinoyl)[aIle][Lys(iPr)]P[dA]-NH2) the value was 97.9±2.9.
